According to patent US12428455B2, “Dominant negative CEBPB and CEBPD proteins and methods of use for decreasing viability of neoplastic cells” (The Trustees of Columbia University in the City of New York, priority 2018, dated 2025):
No end group written: not given here.

Legend:
Type in all cases: cell-based
human astrocytes = experiment: Morphology after peptide treatment, astrocytes; conditions: 6 days, 0 μM or 50 μM; stock without BSA
Protocol: Replicate cultures of human astrocytes were exposed to CP-DN-CEBPB or CP-DN-CEBPD for 6 days at final concentrations of 0 μM or 50 μM. […] Stock solutions of the peptides were prepared in buffer without added bovine serum albumin (BSA).

[1] = system: paclitaxel-resistant T98G cells; experiment: Cell number, paclitaxel-resistant T98G cells; conditions: 6 days; 0 μM to 50 μM peptide or 0 nM to 50 nM paclitaxel
Protocol: Replicate cultures of T98G wild type cells and paclitaxel-resistant T98G cells were treated with 0 nM to 50 nM paclitaxel or 0 μM to 50 μM CP-dn-CEBPB or CP-dn-CEBPD peptides, maintained for 6 days, and then assessed for cell number. Paclitaxel resistant T98G cells were inhibited by both CP-dn-CEBPB (FIG. 28A) and CP-dn-CEBPD (FIG. 28B), but, as expected were not inhibited by paclitaxel (FIG. 28C). This establishes that CP-dn-CEBPB and CP-dn-CEBPD may be effective against chemotherapy-resistant cells.

HCT116 cells = experiment: Combination with gamma radiation, cell number, HCT116; conditions: 2 Gy or 5 Gy; peptide 0.05, 0.5 or 5 μM one day later, 6 days; CI<1 indicates synergism
Protocol: Replicate cultures of T98G and HCT116 cells were exposed to 2 Gy or 5 Gy of gamma radiation. One day later, the cultures were treated with 0.05 μM, 0.5 μM, or 5 μM CP-dn-CEBPB and CP-dn-CEBPD peptides, maintained for 6 days, and then assessed for cell number. The bar graphs of FIGS. 24A (T98G, CP-dn-CEBPB), 24C (T98G, CP-dn-CEBPBD, 24E (HCT116, CP-dn-CEBPD), and 24G (HCT116, CP-dn-CEBPD) show relative cell numbers for each condition as compared to untreated controls. The line graphs of FIGS. 24B (T98G, CP-dn-CEBPB), 24D (T98G, CP-dn-CEBPBD, 24F (HCT116, CP-dn-CEBPB), and 24H (HCT116, CP-dn-CEBPD) show the response as normalized in each case so that 100 represents the relative number of surviving cells that received the indicated level of radiation treatment, but no peptide treatment. Calculated Combination Indexes (CI) are T98G, CI=0.61±0.05 for CP-dn-CEBPB, 0.68±0.07 for CP-dn-CEBPD; HCT116, 0.89±0.04 for CP-dn-CEBPB, 0.86±0.05 for CP-dn-CEBPD. CI=1 indicates additivity; CI<1 indicates synergism; CI>1 indicates antagonism.

T98G cells [2] = experiment: Apoptotic nuclei, propidium iodide flow cytometry, T98G; conditions: 20 μM, 3 days, vs untreated cells
Protocol: MDA-MB-231, MCF7, HCT116 and T98G cancer cell lines were treated for 3 days with 20 μM CP-dn-CEBPB and CP-dn-CEBPD peptides from stock solutions prepared without additives. Cultures were stained with propidium iodide and assessed for proportion of cells with apoptotic nuclei by flow cytometry.

[3] = system: MCF10A non-cancer human breast epithelial cells; experiment: Morphology after peptide treatment, MCF10A; conditions: 5 to 6 days, 20 μM or 50; stock without BSA
Protocol: Stock solutions of the peptides were prepared in buffer without added bovine serum albumin (BSA).

MDA-MB 231 cells = experiment: Scratch migration assay, MDA-MB 231; conditions: 20 hours, 20 μM or 40 μM
Protocol: Monolayers of MDA-MB 231 or T98G cells were subjected to formation of a scratch at 0 time and cultured for 20 hours in 20 μM or 40 μM CP-DN-CEBPB and CP-DN-CEBPD. Multiple images taken at 0 time and after 20 hours were analyzed for gap width of the scratches into which cells migrated or not. Example images for T98G are found in FIG. 22A, with compiled data for the T98G samples in FIG. 22B. Example images for MDA-MB 231 are found in FIG. 22C, with compiled data for the MDA-MB 231 samples in FIG. 22D.

T98G cells [4] = experiment: Combination with paclitaxel, cell number, T98G; conditions: 1 nM or 5 nM paclitaxel and 3, 10 or 20 μM peptide, 6 days
Protocol: Replicate cultures of T98G, MDA-MB 231, and MCF7 cells were treated with 1 nM or 5 nM paclitaxel and 3 μM, 10 μM, or 20 μM CP-dn-CEBPB and CP-dn-CEBPD peptides, maintained for 6 days, and then assessed for cell number. The bar graphs of FIGS. 26A (T98G, CP-dn-CEBPB), 26C (T98G, CP-dn-CEBPBD, 26E (MDA-MB-231, CP-dn-CEBPBD), 26G (MDA-MB-231, CP-dn-CEBPD), 26I (MCF7, CP-dn-CEBPBB), and 26K (MCF7, CP-dn-CEBPBD) show relative cell numbers for each condition as compared to untreated controls. The line graphs of FIGS. 26B (T98G, CP-dn-CEBPB), 26D (T98G, CP-dn-CEBPBD), 26F (MDA-MB-231, CP-dn-CEBPB), 26H (MDA-MB-231, CP-dn-CEBPD), 26J (MCF7, CP-dn-CEBPB), and 26L (MCF7 CP-dn-CEBPBD) show the response as normalized in each case so that 100 represents the relative number of surviving cells that received the indicated level of paclitaxel, but no peptide treatment. Calculated combination indices (CI) were as follows: MCF7: CI=0.41±0.04 for CP-dn-CEBPB; 0.44±0.04 for CP-dn-CEBPD; MDA-MB-231: 0.74±0.03 for CP-dn-CEBPB; 0.74±0.05 for CP-dn-CEBPD; T98G: CI=0.84±0.06 for CP-dn-CEBPB and 0.75±0.07 for CP-dn-CEBPD.

[5] = system: BCL2, MCL1 and survivin proteins; experiment: Western immunoblotting for pro-survival proteins; conditions: 20 μM, 3 days; T98G, HCT116, MDA-MB-231 and MCF7 cell lines
Protocol: T98G, HCT116, MDA-MB-231, and MCF7 cell lines were exposed to 0 or 20 μM CP-dn-CEBPB or CP-dn-CEBPD for 3 days and then assessed by Western immunoblotting for levels of BCL2, MCL1 and survivin proteins with actin as loading control (FIG. 34A). Remaining panels show amounts of surviving (FIG. 34B), BCL2 (FIG. 34C) and MCL1 (FIG. 34D) were quantified relative to actin in multiple experiments.

Row | Sequence | morphology of human astrocytes (human astrocytes) | inhibition of paclitaxel-resistant T98G cells (cell number) [1] | Combination Index (CI) with gamma radiation (HCT116 cells) | proportion of cells with apoptotic nuclei (T98G cells [2]) | morphology of MCF10A cells [3] | cell migration into scratch (gap width) (MDA-MB 231 cells) | combination index (CI) with paclitaxel (T98G cells [4]) | levels of BCL2, MCL1 and survivin proteins relative to actin [5]
1 | RQIKIWFQNRRMKWKKLETQHKVLELTAENERLQKKVEQLSRELSTLRNLFKQL [CP-DN-CEBPB] | did not affect the morphology | inhibited | 0.89±0.04 | increased apoptotic cell death | did not affect the morphology | able to inhibit migration | 0.84±0.06 | surpress expression of pro-survival proteins
2 | RQIKIWFQNRRMKWKKLVELSAENEKLHQRVEQLTRDLAGLRQFFK [CP-DN-CEBPD] | did not affect the morphology | inhibited | 0.86±0.05 | increased apoptotic cell death | did not affect the morphology | able to inhibit migration | 0.75±0.07 | surpress expression of pro-survival proteins
